Patent US11780849B2, “Imino sulfanone inhibitors of ENPP1” (Volastra Therapeutics, Inc., priority 2020, dated 2023)
Like-named read-outs stand apart in the source and are kept apart here.

Tests used:
[1] = target: T1, ENPP-1 ECD (Homo sapiens (Human), UniProt P22413); assay: Assay 1: inhibition of ENPP1 hydrolysis of 2′,3′-cGAMP (AMP-Glo, […] enzyme)
Description: Assay 1: Test compounds were plated in a 3× dilution scheme in a 384 well plate. […] AMP Detection solution (100 μL) was added to each well, the plate centrifuged and incubated for 60 min.

[2] = target: T1, ENPP-1 ECD; assay: Assay 2: inhibition of ENPP1 hydrolysis of 2′,3′-cGAMP (AMP-Glo, […] enzyme)
Description: Assay 2: Compared to the conditions in Assay 1, this assay has a larger dynamic range and ensures the system is under steady-state conditions by reducing the enzyme concentration in the assay.
Test compounds were plated in a 3× dilution scheme in a 384 well plate. […] AMP Detection solution (10 μL) was added to each well, the plate centrifuged and incubated for 60 min.

[3] = read-out: Assay 1 (IC50), ENPP1 hydrolysis of 2′,3′-cGAMP, AMP-Glo
[4] = read-out: Assay 1 (IC50), inhibition of ENPP1 hydrolysis of 2′,3′-cGAMP, no unit in Table 18 (Table 17 legend for this assay uses nM)
[5] = read-out: Assay 2 (KI), ENPP1 hydrolysis of 2′,3′-cGAMP, AMP-Glo, […] ENPP-1, 24 μM cGAMP
[6] = read-out: Assay 2 (KI), inhibition of ENPP1 hydrolysis of 2′,3′-cGAMP, no unit in Table 18 (Table 17 legend for this assay uses nM)
[7] = Assay 1 (IC50), inhibition of ENPP1 hydrolysis of 2′,3′-cGAMP, no unit in Table 18 (Table 17 legend for this assay uses nM)
[8] = Assay 2 (KI), ENPP1 hydrolysis of 2′,3′-cGAMP, AMP-Glo, […] ENPP-1, 24 μM cGAMP
[9] = Assay 2 (KI), inhibition of ENPP1 hydrolysis of 2′,3′-cGAMP, no unit in Table 18 (Table 17 legend for this assay uses nM)
[10] = Assay 1 (IC50), ENPP1 hydrolysis of 2′,3′-cGAMP, AMP-Glo

T1 sequence (P22413 98-925): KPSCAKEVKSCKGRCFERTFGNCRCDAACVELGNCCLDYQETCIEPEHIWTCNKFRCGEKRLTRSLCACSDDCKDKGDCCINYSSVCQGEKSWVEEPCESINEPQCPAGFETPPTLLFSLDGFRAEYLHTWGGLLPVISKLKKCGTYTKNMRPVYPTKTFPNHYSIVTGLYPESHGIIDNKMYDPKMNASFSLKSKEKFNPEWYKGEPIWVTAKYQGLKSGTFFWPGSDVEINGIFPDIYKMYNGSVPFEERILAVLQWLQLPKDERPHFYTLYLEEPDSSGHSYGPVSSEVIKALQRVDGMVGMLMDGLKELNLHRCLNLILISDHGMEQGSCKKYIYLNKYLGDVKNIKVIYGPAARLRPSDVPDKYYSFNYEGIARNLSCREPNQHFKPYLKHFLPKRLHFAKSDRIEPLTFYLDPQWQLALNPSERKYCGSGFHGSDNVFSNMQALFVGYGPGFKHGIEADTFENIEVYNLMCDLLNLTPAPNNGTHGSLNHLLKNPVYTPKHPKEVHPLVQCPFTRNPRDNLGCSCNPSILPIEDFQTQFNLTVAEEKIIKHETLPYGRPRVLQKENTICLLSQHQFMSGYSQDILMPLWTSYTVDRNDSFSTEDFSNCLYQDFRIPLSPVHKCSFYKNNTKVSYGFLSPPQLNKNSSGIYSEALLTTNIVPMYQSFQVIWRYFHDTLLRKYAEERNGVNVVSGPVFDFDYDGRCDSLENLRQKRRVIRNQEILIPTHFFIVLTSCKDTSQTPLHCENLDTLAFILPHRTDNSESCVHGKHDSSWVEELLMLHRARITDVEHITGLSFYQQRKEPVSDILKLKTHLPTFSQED

Row | SMILES | IC50 [1, 3] | IC50 [1, 4] | Ki [2, 5] | Ki [2, 6] | IC50 [1, 7] | Ki [2, 8] | Ki [2, 9] | IC50 [1, 10]
1 | COc1ccc2c(-c3ccc(CS(C)(=N)=O)cc3)ccnc2c1 (stereo not drawn) [Compound 88, imino(4-(7-methoxyquinolin-4-yl)benzyl)(methyl)-λ^6-sulfanone] | – | – | – | – | 920 nM | – | – | 10 to 1000 nM
2 | COc1cc2nccc(Oc3ccc(S(C)(=N)=O)c(F)c3)c2cc1OC (stereo not drawn) [Compound 115, {4-[(6,7-dimethoxyquinolin-4-yl)oxy]-2-fluorophenyl}(imino)methyl-λ^6-sulfanone] | – | – | – | – | 85 nM | 3 to 300 nM | 13 nM | 10 to 1000 nM
3 | COc1ccc2c(CC(=O)N3CCS(=N)(=O)CC3)ccnc2c1 [Compound 26, 1-imino-4-[2-(7-methoxyquinolin-4-yl)acetyl]-1λ^6-thiomorpholin-1-one] | > 1000 nM | – | – | – | 8800 nM | – | – | –
4 | COc1ccc2c(-c3ccc(CCS(C)(=N)=O)cc3)ccnc2c1 (stereo not drawn) [Compound 98, imino(4-(7-methoxyquinolin-4-yl)phenethyl)(methyl)-λ^6-sulfanone] | – | – | – | – | 140 nM | 3 to 300 nM | 25 nM | 10 to 1000 nM
5 | Cc1ccc2ncc(C#N)c(Oc3ccc(S(C)(=N)=O)cc3)c2c1 (stereo not drawn) [Compound 50, 6-methyl-4-(4-(S-methylsulfonimidoyl)phenoxy)quinoline-3-carbonitrile] | > 1000 nM | – | – | – | 2600 nM | – | – | –
6 | COc1cc2nccc(Oc3ccc([S@](=N)(=O)C4CC4)cc3)c2cc1F [Compound 120b] | 10 to 1000 nM | 37 nM | 3 to 300 nM | 4.8 nM | – | – | – | –
7 | COc1cccc2c(OCc3ccc(S(C)(=N)=O)cc3)ccnc12 (stereo not drawn) [Compound 134, imino(4-{[(8-methoxyquinolin-4-yl)oxy]methyl}phenyl)methyl-λ^6-sulfanone] | – | – | – | – | 1100 nM | – | – | –
8 | COc1cc2nccc(Oc3ccc(S(C)(=N)=O)nc3)c2cc1OC (stereo not drawn) [Compound 129, {5-[(6,7-dimethoxyquinolin-4-yl)oxy]pyridin-2-yl}(imino)methyl-λ^6-sulfanone] | – | – | – | – | 260 nM | 3 to 300 nM | 39 nM | 10 to 1000 nM
9 | COc1ccc2c(N3CCC(CCS(C)(=N)=O)CC3)ncnc2c1 (stereo not drawn) [Compound 139, imino({2-[1-(7-methoxyquinazolin-4-yl)piperidin-4-yl]ethyl})methyl-λ^6-sulfanone] | – | – | – | – | 15 nM | < 3 nM | 2.4 nM | 10 to 1000 nM
10 | COc1cccc2c(-c3ccc(CCS(C)(=N)=O)cc3)ncnc12 (stereo not drawn) [Compound 154, imino({2-[4-(8-methoxyquinazolin-4-yl)phenyl]ethyl})methyl-λ^6-sulfanone] | > 1000 nM | – | – | – | 1800 nM | – | – | –
11 | COc1cc2ncnc(Oc3ccc(S(C)(=N)=O)cc3)c2cc1OC (stereo not drawn) [Compound 18, (4-((6,7-dimethoxyquinazolin-4-yl)oxy)phenyl)(imino)(methyl)-λ^6-sulfanone] | – | – | – | – | 180 nM | 3 to 300 nM | 24 nM | 10 to 1000 nM
12 | CS(=N)(=O)Cc1ccc(-c2ccnc3ccccc23)cc1 (stereo not drawn) [Compound 155, imino(methyl){[4-(quinolin-4-yl)phenyl]methyl}-λ^6-sulfanone] | > 1000 nM | – | – | – | 14000 nM | – | – | –
13 | CS(=N)(=O)c1ccc(Oc2c(C#N)cnc3cc(F)ccc23)cc1 (stereo not drawn) [Compound 131, 7-fluoro-4-{4-[imino(methyl)oxo-λ^6-sulfanyl]phenoxy}quinoline-3-carbonitrile] | > 1000 nM | – | – | – | > 30000 nM | – | – | –

Other lines, results leading:

Row | IC50 [1, 3] | IC50 [1, 4] | Ki [2, 5] | Ki [2, 6] | IC50 [1, 7] | Ki [2, 8] | Ki [2, 9] | IC50 [1, 10] | SMILES
14 | 10 to 1000 nM | 520 nM | 3 to 300 nM | 93 nM | – | – | – | – | COc1ccc2c(Oc3ccc([S@](=N)(=O)C4CC4)cc3)ccnc2c1 [Compound 60b]
15 | > 1000 nM | – | – | – | 1300 nM | 3 to 300 nM | 210 nM | – | COc1cccc2c(Oc3ccc(S(C)(=N)=O)cc3)ncnc12 (stereo not drawn) [Compound 84, imino(4-((8-methoxyquinazolin-4-yl)oxy)phenyl)(methyl)-λ^6-sulfanone]
16 | 10 to 1000 nM | 77 nM | 3 to 300 nM | > 25 nM | – | – | – | – | COc1cc2nccc(Oc3ccc([S@@](C)(=N)=O)cc3)c2cc1F [Compound 114b]
17 | > 1000 nM | – | – | – | 23000 nM | – | – | – | COc1cnc2c(Oc3ccc(S(C)(=N)=O)cc3)ccnc2c1 (stereo not drawn) [Compound 76, imino(4-((7-methoxy-1,5-naphthyridin-4-yl)oxy)phenyl)(methyl)-λ^6-sulfanone]
18 | – | – | – | – | 11 nM | < 3 nM | 1.7 nM | 10 to 1000 nM | COc1ccc2c(NCc3ccc(S(C)(=N)=O)cc3)ccnc2c1 (stereo not drawn) [Compound 74, imino(4-(((7-methoxyquinolin-4-yl)amino)methyl)phenyl)(methyl)-λ^6-sulfanone]
19 | – | – | – | – | 51 nM | – | – | 10 to 1000 nM | COc1cccc2c(Oc3ccc(S(C)(=N)=O)cc3)c(C#N)cnc12 (stereo not drawn) [Compound 58, 8-methoxy-4-(4-(S-methylsulfonimidoyl)phenoxy)quinoline-3-carbonitrile]
20 | > 1000 nM | – | 3 to 300 nM | 98 nM | – | – | – | – | COc1ccc2c(OCc3ccc([S@](C)(=N)=O)cc3)ccnc2c1 [Compound 75b]
21 | 10 to 1000 nM | 180 nM | 3 to 300 nM | 13 nM | – | – | – | – | COc1ccc2c(Oc3ccc([S@](C)(=N)=O)cc3)ccnc2c1 [Compound 80b]
22 | – | – | – | – | 310 nM | – | – | 10 to 1000 nM | COc1ccc2c(Oc3ccc(S(C)(=N)=O)cc3)ccnc2c1F (stereo not drawn) [Compound 128, {4-[(8-fluoro-7-methoxyquinolin-4-yl)oxy]phenyl}(imino)methyl-λ^6-sulfanone]
23 | – | – | – | – | 180 nM | 3 to 300 nM | 94 nM | 10 to 1000 nM | COc1ccc2c(Oc3cccc(S(C)(=N)=O)c3)ccnc2c1 (stereo not drawn) [Compound 117, imino({3-[(7-methoxyquinolin-4-yl)oxy]phenyl})methyl-λ^6-sulfanone]
24 | > 1000 nM | – | – | – | 3200 nM | > 300 nM | 330 nM | – | COc1cc2nccc(Oc3ccc([S@](C)(=N)=O)cc3)c2cc1OC [Compound 1R, (R)-(4-((6,7-dimethoxyquinolin-4-yl)oxy)phenyl)(imino)(methyl)-λ^6-sulfanone]
25 | – | – | – | – | 39 nM | 3 to 300 nM | 11 nM | 10 to 1000 nM | COc1cc2nccc(Oc3ccc(S(C)(=N)=O)cc3)c2cc1Cl (stereo not drawn) [Compound 126, {4-[(6-chloro-7-methoxyquinolin-4-yl)oxy]phenyl}(imino)methyl-λ^6-sulfanone]
26 | – | – | – | – | 23 nM | < 3 nM | 2.8 nM | 10 to 1000 nM | COc1ccc2c(Oc3ccc(S(C)(=N)=O)c(F)c3)ccnc2c1 (stereo not drawn) [Compound 10, (2-fluoro-4-((7-methoxyquinolin-4-yl)oxy)phenyl)(imino)(methyl)-λ^6-sulfanone]
27 | – | – | – | – | 180 nM | – | – | 10 to 1000 nM | COc1ccc2ncc(C#N)c(Oc3ccc(S(C)(=N)=O)cc3)c2c1 (stereo not drawn) [Compound 47, 6-methoxy-4-(4-(S-methylsulfonimidoyl)phenoxy)quinoline-3-carbonitrile]
28 | – | – | – | – | 57 nM | – | – | 10 to 1000 nM | COc1cc2nccc(Oc3ccc(S(C)(=N)=O)cc3)c2cn1 (stereo not drawn) [Compound 77, imino(4-((7-methoxy-1,6-naphthyridin-4-yl)oxy)phenyl)(methyl)-λ^6-sulfanone]
29 | – | – | – | – | 8100 nM | – | – | – | COc1ccc2nccc(Oc3ccc(S(C)(=N)=O)cc3)c2n1 (stereo not drawn) [Compound 130, imino({4-[(6-methoxy-1,5-naphthyridin-4-yl)oxy]phenyl})methyl-λ^6-sulfanone]
